Here are results for 24 molecules from patent publication US8207172B2 (Bayer Intellectual Property GmbH, priority 2004, dated 2012).

The test system of assay [1] is A431 cells (human epidermoid carcinoma). Put plainly: In vitro tumor cell proliferation assay (Cell Titer-Glo luminescent cell viability), A431. The format is cell-based. The following applies: A-431, 72 h, 72 hours of drug exposure, ATP luminescence readout, read-out: IC50, anti-proliferative activity (inhibition of cell proliferation). An outline of the steps: (§1)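 Seeding density 2.5×10^3 cells/well; 72 h drug exposure at 37° C; endpoint CellTiter-Glo luminescence, reported as IC50.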
A general note: ATP-based viability assays read luminescence as a measure of living cells.

Assay [2] relates to BT474 (human breast carcinoma). Description: In vitro tumor cell proliferation assay (Cell Titer-Glo luminescent cell viability), BT474. The following applies: BT-474, 72 h, BT474 cells, 72 hours of drug exposure, ATP luminescence readout, read-out: IC50, anti-proliferative activity (inhibition of cell proliferation). It is filed as cell-based. Put shortly: as §1

Structures can show the parent of a compound that is named as a salt.

As to `Cc1cccc(COc2ccc(Nc3ncnc4sc5c(c34)CCc3nn(CCOS(C)(=O)=O)cc3-5)cc2Cl)n1` [Example 116, 2-[6-({3-chloro-4-[(6-methylpyridin-2-yl)methoxy]phenyl}amino)-4,5-dihydro-2H-pyrimido[5′,4′:4,5]thieno[2,3-e]indazol-2-yl]ethyl methanesulfonate], the values for the IC50 in assay [1] and in assay [2] were at most 50 µM and at most 5 µM, respectively.
For `Cc1cccc(COc2ccc(Nc3ncnc4sc5c(c34)CCc3nn(CCN4CCN(C)CC4)cc3-5)cc2Cl)n1` [Example 117, N-{3-chloro-4-[(6-methylpyridin-2-yl)methoxy]phenyl}-2-[2-(4-methylpiperazin-1-yl)ethyl]-4,5-dihydro-2H-pyrimido[5′,4′:4,5]thieno[2,3-e]indazol 6-amine], in that order: at most 50 µM and at most 5 µM.
For `CCN1CCN(CCn2cc3c(n2)CCc2c-3sc3ncnc(Nc4ccc(OCc5cccc(C)n5)c(Cl)c4)c23)CC1` [Example 118, N-{3-chloro-4-[(6-methylpyridin-2-yl)methoxy]phenyl}-2-[2-(4-ethylpiperazin-1-yl)ethyl]-4,5-dihydro-2H-pyrimido[5′,4′:4,5]thieno[2,3-e]indazol-6-amine], in that order: at most 50 µM and at most 5 µM.
Take `Cc1cccc(COc2ccc(Nc3ncnc4sc5c(c34)CCc3nn(CCN4CCOCC4)cc3-5)cc2Cl)n1` [Example 119, N-{3-chloro-4-[(6-methylpyridin-2-yl)methoxy]phenyl}-2-(2-morpholin-4-ylethyl)-4,5-dihydro-2H-pyrimido[5′,4′:4,5]thieno[2,3-e]indazol-6-amine]: the results for the IC50 in assay [1] and in assay [2] were at most 50 µM and at most 5 µM, respectively.
The corresponding values for `Cc1cccc(COc2ccc(Nc3ncnc4sc5c(c34)CCc3n[nH]cc3-5)cc2Cl)n1` [Example 120, N-{3-chloro-4-[(6-methylpyridin-2-yl)methoxy]phenyl}-4,5-dihydro-2H-pyrimido[5′,4′:4,5]thieno[2,3-e]indazol-6-amine] are at most 5 µM and at most 5 µM.
The corresponding values for `CCN1CCN(CCn2cc3c(n2)CCc2c-3sc3ncnc(Nc4ccc(OCc5cccc(F)c5)c(Cl)c4)c23)CC1` [Example 121, N-{3-chloro-4-[(3-fluorobenzyl)oxy]phenyl}-2-[2-(4-ethylpiperazin-1-yl)ethyl]-4,5-dihydro-2H-pyrimido[5′,4′:4,5]thieno[2,3-e]indazol-6-amine] are at most 5 µM and at most 1 µM.
As for `COCCN1CCN(CCn2cc3c(n2)CCc2c-3sc3ncnc(Nc4ccc(OCc5cccc(F)c5)c(Cl)c4)c23)CC1` [Example 122, N-{3-chloro-4-[(3-fluorobenzyl)oxy]phenyl}-2-{2-[4-(2-methoxyethyl)piperazin-1-yl]ethyl}-4,5-dihydro-2H-pyrimido[5′,4′:4,5]thieno[2,3-e]indazol-6-amine], the IC50 in assay [1] was at most 5 µM; in assay [2] it was at most 1 µM.
The corresponding values for `CC(C)(C)[Si](C)(C)OCCn1cc2c(n1)CCc1c-2sc2ncnc(Nc3ccc(OCc4ccccc4)c(Cl)c3)c12` [Example 123, N-[4-(benzyloxy)-3-chlorophenyl]-2-(2-{[tert-butyl(dimethyl)silyl]oxy}ethyl)-4,5-dihydro-2H-pyrimido[5′,4′:4,5]thieno[2,3-e]indazol-6-amine] are at most 50 µM and at most 5 µM.
The corresponding values for `OCCn1cc2c(n1)CCc1c-2sc2ncnc(Nc3ccc(OCc4ccccc4)c(Cl)c3)c12` [Example 124, 2-(6-{[4-(benzyloxy)-3-chlorophenyl]amino}-4,5-dihydro-2H-pyrimido[5′,4′:4,5]thieno[2,3-e]indazol-2-yl)ethanol] are at most 50 µM and at most 1 µM.
For `CS(=O)(=O)OCCn1cc2c(n1)CCc1c-2sc2ncnc(Nc3ccc(OCc4ccccc4)c(Cl)c3)c12` [Example 125, 2-(6-{[4-(benzyloxy)-3-chlorophenyl]amino}-4,5-dihydro-2H-pyrimido[5′,4′:4,5]thieno[2,3-e]indazol-2-yl)ethyl methanesulfonate], in that order: at most 50 µM and at most 1 µM.
Turning to `Clc1cc(Nc2ncnc3sc4c(c23)CCc2nn(CCN3CCOCC3)cc2-4)ccc1OCc1ccccc1` [Example 126, N-[4-(benzyloxy)-3-chlorophenyl]-2-(2-morpholin-4-ylethyl)-4,5-dihydro-2H-pyrimido[5′,4′:4,5]thieno[2,3-e]indazol-6-amine], the IC50 is at most 50 µM in assay [1] and at most 1 µM in assay [2].
On to `Clc1cc(Nc2ncnc3sc4c(c23)CCc2n[nH]cc2-4)ccc1OCc1ccccc1` [Example 127, N-[4-(benzyloxy)-3-chlorophenyl]-4,5-dihydro-2H-pyrimido[5′,4′:4,5]thieno[2,3-e]indazol-6-amine], for which the IC50 in assay [1] is at most 5 µM; in assay [2], at most 1 µM.
The corresponding values for `C=CCn1cc2c(n1)CCc1c-2sc2ncnc(Nc3ccc(OCc4cccc(F)c4)c(Cl)c3)c12` [Example 128, 2-allyl-N-{3-chloro-4-[(3-fluorobenzyl)oxy]phenyl}-4,5-dihydro-2H-pyrimido[5′,4′:4,5]thieno[2,3-e]indazol-6-amine trifluoroacetate (Salt)] are at most 50 µM and at most 1 µM.
For `C=CCn1ncc2c1CCc1c-2sc2ncnc(Nc3ccc(OCc4cccc(F)c4)c(Cl)c3)c12` [Example 129, 3-allyl-N-{3-chloro-4-[(3-fluorobenzyl)oxy]phenyl}-4,5-dihydro-3H-pyrimido[5′,4′:4,5]thieno[2,3-e]indazol-6-amine], in that order: at most 50 µM and at most 1 µM.
For `CCCn1cc2c(n1)CCc1c-2sc2ncnc(Nc3ccc(OCc4cccc(F)c4)c(Cl)c3)c12` [Example 130, N-{3-chloro-4-[(3-fluorobenzyl)oxy]phenyl}-2-propyl-4,5-dihydro-2H-pyrimido[5′,4′:4,5]thieno[2,3-e]indazol-6-amine trifluoroacetate], in that order: at most 50 µM and at most 5 µM.
As for `CCCn1ncc2c1CCc1c-2sc2ncnc(Nc3ccc(OCc4cccc(F)c4)c(Cl)c3)c12` [Example 131, N-{3-chloro-4-[(3-fluorobenzyl)oxy]phenyl}-3-propyl-4,5-dihydro-3H-pyrimido[5′,4′:4,5]thieno[2,3-e]indazol-6-amine trifluoroacetate], the IC50 in assay [1] is at most 50 µM; in assay [2], at most 1 µM.
Consider `OCC(O)Cn1ncc2c1CCc1c-2sc2ncnc(Nc3ccc(OCc4cccc(F)c4)c(Cl)c3)c12` (stereo not drawn) [Example 132, 3-[6-({3-chloro-4-[(3-fluorobenzyl)oxy]phenyl}amino)-4,5-dihydro-3Hpyrimido[5′,4′:4,5]thieno[2,3-e]indazol-3-yl]propane-1,2-diol], for which the IC50 was at most 5 µM in assay [1] and at most 1 µM in assay [2].
In the case of `COCCN1CCN(C[C@@H](O)Cn2cc3c(n2)CCc2c-3sc3ncnc(Nc4ccc(OCc5cccc(F)c5)c(Cl)c4)c23)CC1` [Example 133, (2R)-1-[6-({3-chloro-4-[(3-fluorobenzyl)oxy]phenyl}amino)-4,5-dihydro-2H-pyrimido[5′,4′:4,5]thieno[2,3-e]indazol-2-yl]-3-[4-(2-methoxyethyl)piperazin-1-yl]propan-2-ol], the IC50 was at most 50 µM in assay [1] and at most 1 µM in assay [2].
For `COCCN1CCN(C[C@@H](O)Cn2ncc3c2CCc2c-3sc3ncnc(Nc4ccc(OCc5cccc(F)c5)c(Cl)c4)c23)CC1` [Example 134, (2R)-1-[6-({3-chloro-4-[(3-fluorobenzyl)oxy]phenyl}amino)-4,5-dihydro-3H-pyrimido[5′,4′:4,5]thieno[2,3-e]indazol-3-yl]-3-[4-(2-methoxyethyl)piperazin-1-yl]propan-2-ol], in that order: at most 50 µM and at most 1 µM.
For `OC(CN1CCOCC1)Cn1cc2c(n1)CCc1c-2sc2ncnc(Nc3ccc(OCc4cccc(F)c4)c(Cl)c3)c12` (stereo not drawn) [Example 135, 1-[6-({3-chloro-4-[(3-fluorobenzyl)oxy]phenyl}amino)-4,5-dihydro-2H-pyrimido[5′,4′:4,5]thieno[2,3-e]indazol-2-yl]-3-morpholin-4-ylpropan-2-ol], in that order: at most 50 µM and at most 1 µM.
The corresponding values for `CN1CCN(C[C@@H](O)Cn2cc3c(n2)CCc2c-3sc3ncnc(Nc4ccc(OCc5cccc(F)c5)c(Cl)c4)c23)CC1` [Example 136, (2R)-1-[6-({3-chloro-4-[(3-fluorobenzyl)oxy]phenyl}amino)-4,5-dihydro-2H-pyrimido[5′,4′:4,5]thieno[2,3-e]indazol-2-yl]-3-(4-methylpiperazin-1-yl)propan-2-ol] are at most 50 µM and at most 1 µM.
Consider `COCCN(CCOC)C[C@@H](O)Cn1cc2c(n1)CCc1c-2sc2ncnc(Nc3ccc(OCc4cccc(F)c4)c(Cl)c3)c12` [Example 138, (2R)-1-[bis(2-methoxyethyl)amino]-3-[6-({3-chloro-4-[(3-fluorobenzyl)oxy]phenyl}amino)-4,5-dihydro-2H-pyrimido[5′,4′:4,5]thieno[2,3-e]indazol-2-yl]propan-2-ol], for which the IC50 in assay [1] is at most 50 µM; in assay [2] it was at most 1 µM.
With `O[C@H](CN1CCSCC1)Cn1cc2c(n1)CCc1c-2sc2ncnc(Nc3ccc(OCc4cccc(F)c4)c(Cl)c3)c12` [Example 139, (2R)-1-[6-({3-chloro-4-[(3-fluorobenzyl)oxy]phenyl}amino)-4,5-dihydro-2H-pyrimido[5′,4′:4,5]thieno[2,3-e]indazol-2-yl]-3-thiomorpholin-4-ylpropan-2-ol], the IC50 in assay [1] was at most 50 µM; in assay [2], at most 1 µM.
The corresponding values for `COC[C@@H]1CCCN1C[C@@H](O)Cn1cc2c(n1)CCc1c-2sc2ncnc(Nc3ccc(OCc4cccc(F)c4)c(Cl)c3)c12` [Example 140, (2R)-1-[6-({3-chloro-4-[(3-fluorobenzyl)oxy]phenyl}amino)-4,5-dihydro-2H-pyrimido[5′,4′:4,5]thienol[2,3-e]indazol-2-yl]-3-[(2S)-2-(methoxymethyl)pyrrolidin-1-yl]propan-2-ol] are at most 50 µM and at most 1 µM.
